Results reported in patent US8906416B2, “Xanthenedione derivatives for the treatment of pigmentation and skin ageing disorders” (Pierre Fabre Dermo-Cosmetique, priority 2010, dated 2014).
pIC50: −log10 of the molar value.

Key:
B16-F10 cells = experiment: Melanin assay test in B16-F10 cells; type: cell-based, murine; details: Mus musculus, B16-F10; 0.1 μM α-MSH stimulated, 72 hours treatment; read-out: Results activity B16-F10 IC50 (50% melanin synthesis inhibition)
Method: This involves a test of measuring the synthesis of melanin by colorimetric assay on a murine melanoma cell line: the B16-F10 line. This test enables the depigmenting power of active ingredients to be evaluated.
The B16-F10 cells are cultured in 96-well plates in DMEM medium, supplemented with FCS (foetal calf serum), and incubated 24 hours at 37° C., 5% CO2. The cells are then stimulated with 0.1 μM α-MSH (to stimulate the synthesis of melanin, the stimulation observed is around 150%) and treated 72 hours with the active ingredients to be tested. Each concentration of active ingredient is tested at least in triplicate. The total melanin followed by the intracellular melanin dissolved in the lysis buffer are then assayed by absorbance reading at 405 nm. The total proteins are assayed in the lysate and the results are expressed in mg melanin/mg proteins. The percentage of activity is calculated as follows:
[formula] A negative value indicates an inhibition, whereas a positive value indicates an induction of the synthesis of melanin. General Experimental Conditions: • Equipment: • CO2 cell incubator (Heraeus), Oven, Centrifuge (Heraeus), Laminar air flow fume hood, 96-well clear bottomed plates—Falcon, sterile cones—Treff Lab, Polylabo, Mithras LB940 (Berthold Technologies)-154/MIPA/003 Biological Equipment: • B16-F10 cell line between P10 and P20 (murine melanocytes) (ATCC, CRL-6475) • Reagents • DMEM without phenol red (GIBCOBRL, 31053-028), 200 mM Glutamax-I Supplement (GIBCOBRL, 35050-038), D-PBS (GIBCOBRL, 14190-094), Foetal calf serum (Invitrogen, 10270-098), Trypsine-EDTA (GIBCOBRL, 25300-054), NaOH (Sigma, S8045-500G), DMSO (Sigma, 471267-1L), Nle, Phe—Melanocyte Stimulating Hormone (Sigma, M-8764), Melanin (Sigma, M-0418), BCA-COPPER (SIGMA, B9643 AND C2284), BSA (SIGMA, P0914) B) Test for the Study of the Antioxidant Capacity by Chemiluminescence (Photochem Analytik Jena) Principle: […]

[1] = test system: Melanoderm-B (Black) reconstructed epidermis; experiment: Reconstructed epidermis depigmenting activity, Melanoderm-B; type: cell-based; details: D3, D7, D10 and D14, 0.5% in Simplex formula
From the text: (§1) The compounds of examples 8 and 21 were formulated at the concentration of 0.5% in a Simplex formula according to the example of composition A. Melanoderm-B (Black) or Melanoderm A (Asian) (MatTek, USA) reconstructed epidermis models were used. The reference compound chosen is kojic acid titrated to 2% in aqueous solution. The culture medium is changed every day. The products are applied by topical mode on the epidermis every two days. For the application, the epidermises are rinsed with PBS and the product to be tested is then applied. A preliminary toxicity study made it possible to determine that the dose to apply for each treatment is 25 μL. The tissues were observed on D3, D7, D10, D14 (Melanoderm B) or D6, D10, D14 and D21 (Melanoderm A) by 3 independent experts.

[2] = test system: Melanoderm A (Asian) reconstructed epidermis; experiment: Reconstructed epidermis depigmenting activity, Melanoderm A; type: cell-based
From the text: as §1, with “experts. The formula containing example 8 was also tested in a Melanoderm-A (Asian) model. The coloration of the epidermis is compared to that of the simplex control formula.” for “experts.”

SMILES	pIC50 (B16-F10 cells)	Coloration of the epidermis compared to negative control (water) [1]	Melanin assay: reduction of melanin with respect to epidermises treated by the Simplex control formula ([2]; 0.5% in Simplex formula) [µg]	Coloration of the epidermis compared to the simplex control formula ([2]; D6, D10, D14, D21, 0.5% in Simplex formula)
COc1cc(C2C3=C(CC(C)(C)CC3=O)OC3=C2C(=O)CC(C)(C)C3)ccc1O[C@@H]1OC(CO)[C@@H](O)C(O)C1O (stereo in doubt) [Example 21, 9-(3-methoxy-4-((3S,4 S,5S)-3,4,5-trihydroxy-6-(hydroxymethyl)tetrahydro-2H-pyran-2-yloxy)phenyl)-3,3,6,6-tetramethyl-3,4,5,6,7,9-hexahydro-1H-xanthene-1,8(2H)-dione]	4.16	macroscopic depigmenting effect		
CCCCCCCCCCCCCCCC(=O)Oc1ccc(C2C3=C(CC(C)(C)CC3=O)OC3=C2C(=O)CC(C)(C)C3)cc1OC [Example 8, 2-methoxy-4-(3,3,6,6-tetramethyl-1,8-dioxo-2,3,4,5,6,7,8,9-octahydro-1H-xanthen-9-yl)phenyl palmitate]		macroscopic depigmenting effect	4.1	macroscopic depigmenting effect
